Measured values: publication PMC5095062, “The novel choline kinase inhibitor ICL-CCIC-0019 reprograms cellular metabolism and inhibits cancer cell growth” (Oncotarget, 2016)

Experiments:
[1] = test system: HCT116 cells; test: Mitochondrial respiration (Seahorse XF24); format: cell-based, human; details: 10 μM
Method: Extracellular acidification and oxygen consumption rates (ECAR and OCR) were measured in a XF24 extracellular flux analyzer (Seahorse XF24 Extra Cellular Flux Analyzer, North Billerica, MA, USA). Basic XF assay medium was prepared as previously described supplemented with glucose, and the pH adjusted to 7.4 at 37°C. Indicated final concentrations of compounds were obtained by injecting appropriate amounts of compounds dissolved in DMSO or water and diluted in XF assay medium into ports. […] Indicated data points were obtained after 3 min mixing and 2 min wait, followed by 3 min of data collection. Data were normalized to the basal values.

[2] = test system: HCT116 cells; test: TMRE mitochondrial membrane potential assay; format: cell-based, human; details: 10 μM, 24 h
Method: HCT116 cells were cultured as above with indicated inhibitors and subject to the tetramethylrhodamine ethyl ester dye method (TMRE) membrane potential assay according to the manufacturers instruction (Abcam ab113852) prior to FACS analysis.

For MN58B [reference compound], which “mitochondrial respiration immediately after adding inhibitor (acute effect)” value [1] is on record?
Its value is “decreased mitochondrial respiration”.

And the “TMRE-detectable mitochondrial membrane potential” value [2]?
Its value is “decreased”.
